Data as given in US9247759B2, “Identification of human T2R receptors that respond to bitter compounds that elicit the bitter taste in compositions, and the use thereof in assays to identify compounds that inhibit (block) bitter taste in compositions and use thereof” (SENOMYX, INC., priority 2007, dated 2016).

What was measured:
hT2R14 [1] = target: T1, hT2R14 (Homo sapiens (Human), UniProt Q9NYV8); assay: hT2R14 antagonist high-throughput FLIPR assay, stable cell line with G16g44, agonist aristolochic acid; type: cell-based; conditions: read-out: IC50 on hT2R14 bitter receptor
T1 sequence (Q9NYV8 whole entry): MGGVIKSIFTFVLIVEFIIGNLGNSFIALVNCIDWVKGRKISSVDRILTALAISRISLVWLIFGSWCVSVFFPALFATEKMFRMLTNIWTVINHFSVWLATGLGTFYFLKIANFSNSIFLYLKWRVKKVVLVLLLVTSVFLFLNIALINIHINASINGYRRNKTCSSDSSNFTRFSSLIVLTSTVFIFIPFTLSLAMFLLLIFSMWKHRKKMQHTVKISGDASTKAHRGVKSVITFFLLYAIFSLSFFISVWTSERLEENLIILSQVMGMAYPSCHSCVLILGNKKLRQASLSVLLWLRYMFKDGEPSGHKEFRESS
Summary of the method: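 HEK293 cells stably expressing hT2R14 with chimeric G16g44 were stimulated with aristolochic acid (3 μM), giving 70-80% of maximal receptor activity. Test compounds were added together with the agonist, and antagonism was read as fluorescent calcium signal on FLIPR.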

hT2R3 = hT2R3 (Homo sapiens (Human), UniProt Q9NYW6); assay: hT2R panel inhibition, transient HEK293 G16g44, agonist Chloroquine pH6.5 50 μM; type: cell-based; conditions: HEK293, compound at 25 μM; receptor activated to EC80 with the corresponding agonist; read-out: screening result against bitter receptor 3
hT2R3, sequence (Q9NYW6 whole entry): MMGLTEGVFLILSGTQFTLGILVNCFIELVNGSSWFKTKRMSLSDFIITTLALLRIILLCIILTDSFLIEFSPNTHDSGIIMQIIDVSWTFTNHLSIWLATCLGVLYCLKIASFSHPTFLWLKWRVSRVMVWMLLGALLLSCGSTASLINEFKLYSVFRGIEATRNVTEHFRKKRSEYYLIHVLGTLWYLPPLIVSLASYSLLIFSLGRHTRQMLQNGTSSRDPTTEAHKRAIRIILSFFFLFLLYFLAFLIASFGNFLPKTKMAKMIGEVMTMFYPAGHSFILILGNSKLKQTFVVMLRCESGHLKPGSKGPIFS
Summary of the method: (§1)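 Receptor activity was measured in functional assays after single-receptor transient transfection; bitter agonists were used at their EC80 levels. A decrease in that activity when the test compound was added was taken as inhibition.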

hT2R4 = hT2R4 (Homo sapiens (Human), UniProt Q9NYW5); assay: hT2R panel inhibition, transient HEK293 G16g44, agonist Chloroquine pH6.5 5 mM; type: cell-based; conditions: HEK293, compound at 25 μM; receptor activated to EC80 with the corresponding agonist; class symbols; read-out: screening result against bitter receptor 4
hT2R4, sequence (Q9NYW5 whole entry): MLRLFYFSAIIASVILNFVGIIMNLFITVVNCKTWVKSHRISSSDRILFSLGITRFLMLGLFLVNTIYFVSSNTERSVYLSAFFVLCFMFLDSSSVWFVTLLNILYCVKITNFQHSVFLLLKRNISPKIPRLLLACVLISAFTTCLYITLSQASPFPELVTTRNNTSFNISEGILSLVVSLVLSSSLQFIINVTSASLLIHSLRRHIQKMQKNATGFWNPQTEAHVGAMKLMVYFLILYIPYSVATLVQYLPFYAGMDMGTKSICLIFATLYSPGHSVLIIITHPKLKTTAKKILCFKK
Procedure: (§2) Specifically, in order to evaluate the inhibitory selectivity of the Compound C compound, this compound was tested against 22 human T2Rs which were deorphaned by Senomyx. These receptors and the bitter ligands that activate these human T2Rs are reported in earlier patent applications which are incorporated by reference herein. These 22 human T2Rs are hT2R1, 3, 4, 5, 7, 8, 9, 10, 13, 14, 16, 44, 51, 54, 55, 61, 63, 64, 65, 67, 71 and 75. The amino acid and nucleic acid sequences of all of these T2Rs may be found in these earlier patent applications. These human T2Rs were each individually transiently transfected into HEK293 cells that stably express the promiscuous G protein G16g44 and functional assays were effected using these receptors as disclosed in these same patent applications. […] The ligands were used at EC80 concentration levels. The list of bitter ligands utilized and the tested ligand concentrations are contained in Table 5 of this example.
(§3) Relating to the foregoing, FIG. 5 contains experimental results wherein Compound C was tested with different agonist compounds. The inhibition activity is represented by the reduction of receptor activity in the presence of Compound C. […] These 13 hT2Rs are hT2R3, 7, 10, 14, 16, 44, 51, 55, 61, 63, 64, 65, and 71.

hT2R14 [2] = target: T1, hT2R14; assay: hT2R panel inhibition, transient HEK293 G16g44, agonist Aristolochic Acid 2 μM; type: cell-based; conditions: HEK293, compound at 25 μM; receptor activated to EC80 with the corresponding agonist; read-out: screening result against bitter receptor 14
Summary of the method: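 Each hT2R was transiently transfected into HEK293 cells stably expressing G16g44 and assayed functionally for inhibition of agonist response. Agonists were applied at EC80: andrographolide at 0.5 mM for hT2R8 and aristolochic acid at 2 μM for hT2R14.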

hT2R16 = hT2R16 (Homo sapiens (Human), UniProt Q9NYV7); assay: hT2R panel inhibition, transient HEK293 G16g44, agonist Salicin 1 mM; type: cell-based; conditions: HEK293, compound at 25 μM; receptor activated to EC80 with the corresponding agonist; read-out: screening result against bitter receptor 16
hT2R16, sequence (Q9NYV7 whole entry): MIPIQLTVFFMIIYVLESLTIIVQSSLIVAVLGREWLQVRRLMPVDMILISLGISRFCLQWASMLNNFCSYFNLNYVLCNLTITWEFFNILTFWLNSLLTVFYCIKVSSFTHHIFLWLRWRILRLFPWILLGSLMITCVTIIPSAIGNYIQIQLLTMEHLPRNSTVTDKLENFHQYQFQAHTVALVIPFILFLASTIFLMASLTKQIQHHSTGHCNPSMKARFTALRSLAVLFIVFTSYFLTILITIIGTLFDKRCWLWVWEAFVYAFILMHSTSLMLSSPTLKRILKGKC
Summary of the method: as §1

hT2R44 = assay: hT2R panel inhibition, transient HEK293 G16g44, agonist Denatonium 0.5 μM; type: cell-based, human; conditions: compound at 25 μM; receptor activated to EC80 with the corresponding agonist
Summary of the method: as §1

hT2R55 = assay: hT2R panel inhibition, transient HEK293 G16g44, agonist Cinchonine 150 μM; type: cell-based, human; conditions: compound at 25 μM; receptor activated to EC80 with the corresponding agonist
Summary of the method: as §1

hT2R61 = hT2R61 (Homo sapiens (Human), UniProt P59537); assay: hT2R panel inhibition, transient HEK293 G16g44, agonist Aristolochic Acid 25 nM; type: cell-based; conditions: HEK293, compound at 25 μM; receptor activated to EC80 with the corresponding agonist; read-out: screening result against bitter receptor 61
hT2R61, sequence (P59537 whole entry): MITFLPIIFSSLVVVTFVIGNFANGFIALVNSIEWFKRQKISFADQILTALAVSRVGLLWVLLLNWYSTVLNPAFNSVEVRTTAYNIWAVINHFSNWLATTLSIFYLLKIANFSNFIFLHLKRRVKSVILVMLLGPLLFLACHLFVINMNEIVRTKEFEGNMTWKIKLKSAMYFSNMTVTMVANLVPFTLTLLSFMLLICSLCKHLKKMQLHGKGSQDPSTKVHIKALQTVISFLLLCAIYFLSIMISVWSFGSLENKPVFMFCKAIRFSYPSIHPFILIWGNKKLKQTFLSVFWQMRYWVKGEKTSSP
Summary of the method: as §1

hT2R63 = assay: hT2R panel inhibition, transient HEK293 G16g44, agonist Caffeine 1 mM or Andrographolide 100 μM; type: cell-based, human; conditions: compound at 25 μM; receptor activated to EC80 with the corresponding agonist
Summary of the method: as §1

hT2R64 = hT2R64 (Homo sapiens (Human), UniProt P59538); assay: hT2R panel inhibition, transient HEK293 G16g44, agonist Aristolochic Acid 1 μM; type: cell-based; conditions: HEK293, compound at 25 μM; receptor activated to EC80 with the corresponding agonist; read-out: screening result against bitter receptor 64
hT2R64, sequence (P59538 whole entry): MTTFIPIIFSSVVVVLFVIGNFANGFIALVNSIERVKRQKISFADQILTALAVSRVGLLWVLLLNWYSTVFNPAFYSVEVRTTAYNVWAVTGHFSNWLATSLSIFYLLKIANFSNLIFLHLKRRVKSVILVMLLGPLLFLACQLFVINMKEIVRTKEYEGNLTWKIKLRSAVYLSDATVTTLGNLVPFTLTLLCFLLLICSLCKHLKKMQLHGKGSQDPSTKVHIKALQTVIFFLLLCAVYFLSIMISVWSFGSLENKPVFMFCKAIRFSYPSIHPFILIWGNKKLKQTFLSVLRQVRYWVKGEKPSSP
Summary of the method: as §1

hT2R71 = hT2R71 (Homo sapiens (Human), UniProt P59536); assay: hT2R panel inhibition, transient HEK293 G16g44, agonist Picric Acid 10 μM; type: cell-based; conditions: HEK293, compound at 25 μM; receptor activated to EC80 with the corresponding agonist; read-out: screening result against bitter receptor 71
hT2R71, sequence (P59536 whole entry): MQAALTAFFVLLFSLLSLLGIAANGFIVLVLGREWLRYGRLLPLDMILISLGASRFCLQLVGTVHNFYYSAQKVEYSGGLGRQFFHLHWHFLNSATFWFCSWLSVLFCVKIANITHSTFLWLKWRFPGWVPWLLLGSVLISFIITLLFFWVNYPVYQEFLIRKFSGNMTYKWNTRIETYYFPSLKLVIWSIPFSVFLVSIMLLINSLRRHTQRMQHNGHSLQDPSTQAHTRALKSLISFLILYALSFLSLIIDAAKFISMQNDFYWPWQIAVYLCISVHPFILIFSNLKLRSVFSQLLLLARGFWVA
Summary of the method: as §1

hT2R7 = hT2R7 (Homo sapiens (Human), UniProt Q9NYW3); assay: hT2R panel inhibition, transient HEK293 G16g44, agonist Chloroquine pH6.5 10 mM; type: cell-based; conditions: HEK293, compound at 25 μM; receptor activated to EC80 with the corresponding agonist; read-out: screening result against bitter receptor 7
hT2R7, sequence (Q9NYW3 whole entry): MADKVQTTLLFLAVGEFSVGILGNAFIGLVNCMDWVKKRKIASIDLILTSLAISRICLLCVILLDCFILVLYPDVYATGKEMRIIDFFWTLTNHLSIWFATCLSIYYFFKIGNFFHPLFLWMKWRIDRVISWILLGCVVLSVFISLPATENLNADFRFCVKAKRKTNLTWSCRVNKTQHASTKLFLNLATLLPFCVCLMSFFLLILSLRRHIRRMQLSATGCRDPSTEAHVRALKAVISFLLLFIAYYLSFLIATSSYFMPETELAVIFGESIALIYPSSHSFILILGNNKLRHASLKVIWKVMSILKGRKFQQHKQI
Summary of the method: as §1

hT2R5 = hT2R5 (Homo sapiens (Human), UniProt Q9NYW4); assay: hT2R panel inhibition, transient HEK293 G16g44, agonist Picoline 10 mM; type: cell-based; conditions: HEK293, compound at 25 μM; receptor activated to EC80 with the corresponding agonist; read-out: screening result against bitter receptor 5
hT2R5, sequence (Q9NYW4 whole entry): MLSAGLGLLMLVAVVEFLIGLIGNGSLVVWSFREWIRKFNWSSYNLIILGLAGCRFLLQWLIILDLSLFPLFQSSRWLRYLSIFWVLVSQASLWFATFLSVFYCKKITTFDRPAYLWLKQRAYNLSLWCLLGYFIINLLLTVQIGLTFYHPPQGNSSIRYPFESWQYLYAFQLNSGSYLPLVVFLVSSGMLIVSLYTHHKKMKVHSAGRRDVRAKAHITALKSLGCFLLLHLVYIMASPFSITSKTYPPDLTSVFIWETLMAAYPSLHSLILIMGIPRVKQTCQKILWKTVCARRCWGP
Summary of the method: as §1

hT2R10 = hT2R10 (Homo sapiens (Human), UniProt Q9NYW0); assay: hT2R panel inhibition, transient HEK293 G16g44, agonist Strychnine 50 μM; type: cell-based; conditions: HEK293, read-out: screening result against bitter receptor 10, compound at 25 μM; receptor activated to EC80 with the corresponding agonist
hT2R10, sequence (Q9NYW0 whole entry): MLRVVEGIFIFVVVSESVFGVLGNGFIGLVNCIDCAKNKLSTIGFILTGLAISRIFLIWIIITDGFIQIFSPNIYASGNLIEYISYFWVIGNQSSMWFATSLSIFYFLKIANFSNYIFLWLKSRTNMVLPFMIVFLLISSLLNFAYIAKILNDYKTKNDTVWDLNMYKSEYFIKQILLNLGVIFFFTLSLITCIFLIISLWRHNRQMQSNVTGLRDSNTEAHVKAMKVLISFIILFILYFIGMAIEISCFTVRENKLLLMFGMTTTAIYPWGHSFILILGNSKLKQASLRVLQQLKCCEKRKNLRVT

hT2R51 = hT2R51 (Homo sapiens (Human), UniProt P59533); assay: hT2R panel inhibition, transient HEK293 G16g44, agonist Prop 2.5 μM; type: cell-based; conditions: HEK293, compound at 25 μM; receptor activated to EC80 with the corresponding agonist; read-out: screening result against bitter receptor 51
hT2R51, sequence (P59533 whole entry): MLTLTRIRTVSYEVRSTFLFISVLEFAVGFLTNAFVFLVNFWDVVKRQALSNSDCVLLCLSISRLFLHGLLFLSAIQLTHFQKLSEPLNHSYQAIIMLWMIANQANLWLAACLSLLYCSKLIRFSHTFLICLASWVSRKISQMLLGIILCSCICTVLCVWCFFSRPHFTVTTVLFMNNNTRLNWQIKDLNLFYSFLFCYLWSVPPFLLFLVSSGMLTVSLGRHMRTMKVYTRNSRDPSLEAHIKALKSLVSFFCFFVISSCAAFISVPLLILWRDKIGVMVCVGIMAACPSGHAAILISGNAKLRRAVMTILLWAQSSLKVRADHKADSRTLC
Procedure: as §2, §3

hT2R54 = assay: hT2R panel inhibition, transient HEK293 G16g44, agonist Ranitidine 5 mM; type: cell-based, human; conditions: compound at 25 μM; receptor activated to EC80 with the corresponding agonist
Summary of the method: as §1

hT2R65 = assay: hT2R panel inhibition, transient HEK293 G16g44, agonist Oleuropein 1 mM; type: cell-based, human; conditions: compound at 25 μM; receptor activated to EC80 with the corresponding agonist
Summary of the method: as §1

hT2R67 = assay: hT2R panel inhibition, transient HEK293 G16g44, agonist Andrographolide 5 μM; type: cell-based, human; conditions: compound at 25 μM; receptor activated to EC80 with the corresponding agonist
Summary of the method: as §1

hT2R75 = hT2R75 (Homo sapiens (Human), UniProt P59540); assay: hT2R panel inhibition, transient HEK293 G16g44, agonist Strychnine 1 μM; type: cell-based; conditions: HEK293, read-out: screening result against bitter receptor 75, compound at 25 μM; receptor activated to EC80 with the corresponding agonist
hT2R75, sequence (P59540 whole entry): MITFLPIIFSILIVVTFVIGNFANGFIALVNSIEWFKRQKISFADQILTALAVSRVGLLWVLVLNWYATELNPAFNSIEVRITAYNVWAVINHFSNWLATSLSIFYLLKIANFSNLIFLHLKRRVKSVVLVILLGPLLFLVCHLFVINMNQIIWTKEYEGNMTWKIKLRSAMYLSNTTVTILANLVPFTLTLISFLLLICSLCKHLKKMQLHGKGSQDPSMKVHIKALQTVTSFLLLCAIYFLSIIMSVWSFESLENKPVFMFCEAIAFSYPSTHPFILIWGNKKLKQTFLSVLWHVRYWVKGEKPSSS
Procedure: as §2, §3

| Structure (SMILES) | IC50 (hT2R14 [1]) [nM] | inhibition at 25 µM (hT2R3) [%] | inhibition at 25 µM (hT2R4) [%] | inhibition at 25 µM (hT2R14 [2]) [%] | inhibition at 25 µM (hT2R16) [%] | screening result against bitter receptor 44 (hT2R44) | screening result against bitter receptor 55 (hT2R55) | inhibition at 25 µM (hT2R61) [%] | screening result against bitter receptor 63 (hT2R63) | inhibition at 25 µM (hT2R64) [%] | inhibition at 25 µM (hT2R71) [%] | inhibition at 25 µM (hT2R7) [%] | inhibition at 25 µM (hT2R5) [%] | inhibition at 25 µM (hT2R10) [%] | inhibition at 25 µM (hT2R51) [%] | screening result against bitter receptor 54 (hT2R54) | screening result against bitter receptor 65 (hT2R65) | screening result against bitter receptor 67 (hT2R67) | inhibition at 25 µM (hT2R75) [%] |
| --- | --- | --- | --- | --- | --- | --- | --- | --- | --- | --- | --- | --- | --- | --- | --- | --- | --- | --- | --- |
| CC(=O)Nc1ccc(S(=O)(=O)N(Cc2ccccc2)CC2CCC(C(=O)O)CC2)cc1 (stereo not drawn) [Example 5-21, 4-((4-acetamido-N-benzylphenylsulfonamido)methyl)-cyclohexanecarboxylic acid] | 1620 | 20 to 40 | 20 to 40 | > 80 | 20 to 40 | ++ (40% to 60% inhibition = ++) | + (20% to 40% inhibition = +) | 60 to 80 | +++ (60% to 80% inhibition = +++) | 20 to 40 | 20 to 40 |  |  |  |  |  |  |  |  |
| O=C(O)C1CCC(CN(Cc2ccc(F)cc2)S(=O)(=O)Cc2ccccc2)CC1 (stereo not drawn) [Example 5-24, 4-((N-(4-fluorobenzyl)-1-phenylmethylsulfonamido)methyl)-cyclohexanecarboxylic acid] | 9570 |  | 20 to 40 |  |  | + (20% to 40% inhibition = +) | ++ (40% to 60% inhibition = ++) | > 80 | + (20% to 40% inhibition = +) | 60 to 80 | 20 to 40 | 20 to 40 |  |  |  |  |  |  |  |
| COc1ccc(CN(Cc2ccc(NC(C)=O)cc2)S(=O)(=O)c2ccc(C(=O)O)cc2)cc1 [Example 5-26, 4-(N-(4-acetamidobenzyl)-N-(4-methoxybenzyl)sulfamoyl)benzoic acid] |  |  | 40 to 60 |  |  | + (20% to 40% inhibition = +) |  | 20 to 40 | +++ (60% to 80% inhibition = +++) | 60 to 80 | 20 to 40 | 20 to 40 |  |  |  |  |  |  |  |
| COc1cccc(CN(Cc2ccc(C(=O)O)cc2)S(=O)(=O)c2ccc(O)cc2)c1 [Example 5-43, 4-((4-hydroxy-N-(3-methoxybenzyl)phenylsulfonamido)methyl)-benzoic acid] | 188 | 20 to 40 | 20 to 40 | > 80 | 20 to 40 | + (20% to 40% inhibition = +) | + (20% to 40% inhibition = +) | > 80 | ++++ (80% or greater inhibition = ++++) | 60 to 80 | 40 to 60 |  |  |  |  |  |  |  |  |
| O=C(O)C1CCC(CN(Cc2ccc(F)cc2)S(=O)(=O)c2ccccn2)CC1 (stereo not drawn) [Example 5-53, 4-((N-(4-fluorobenzyl)pyridine-2-sulfonamido)methyl)cyclohexanecarboxylic acid] |  |  | 20 to 40 | 40 to 60 |  |  |  |  | ++ (40% to 60% inhibition = ++) | 40 to 60 | 20 to 40 | 20 to 40 |  |  |  |  |  |  |  |
| COc1ccc(CN(Cc2ccccc2Cl)S(=O)(=O)c2ccc(C(=O)O)cc2)cc1 [Example 5-68, 4-(N-(2-chlorobenzyl)-N-(4-methoxybenzyl)sulfamoyl)benzoic acid] |  | 20 to 40 |  | > 80 | 20 to 40 | ++ (40% to 60% inhibition = ++) | ++++ (80% or greater inhibition = ++++) | 60 to 80 | ++++ (80% or greater inhibition = ++++) | 60 to 80 | 60 to 80 | 20 to 40 | 40 to 60 | 20 to 40 | 20 to 40 | + (20% to 40% inhibition = +) | + (20% to 40% inhibition = +) | + (20% to 40% inhibition = +) | 20 to 40 |
| O=C(O)c1ccc(S(=O)(=O)N(Cc2ccccc2)Cc2ccccc2Cl)cc1 [Example 5-83, 4-(N-benzyl-N-(2-chlorobenzyl)sulfamoyl)benzoic acid] |  | 40 to 60 |  | > 80 | 40 to 60 | + (20% to 40% inhibition = +) | +++ (60% to 80% inhibition = +++) | > 80 | +++ (60% to 80% inhibition = +++) | 20 to 40 | 20 to 40 | 20 to 40 | 20 to 40 | 40 to 60 | 20 to 40 | ++ (40% to 60% inhibition = ++) | +++ (60% to 80% inhibition = +++) | ++ (40% to 60% inhibition = ++) | 40 to 60 |
| COc1ccc(CN2C(=O)N(c3ccc(C(=O)O)cc3)C(=O)C2Cc2ccccc2)cc1 (stereo not drawn) [Example 5-98, 4-(4-benzyl-3-(4-methoxybenzyl)-2,5-dioxoimidazolidin-1-yl)benzoic acid] |  | 20 to 40 | 40 to 60 |  |  | +++ (60% to 80% inhibition = +++) | ++++ (80% or greater inhibition = ++++) | > 80 |  | 60 to 80 |  |  |  |  |  |  |  |  |  |
